From ChEMBL document CHEMBL4610099, “Galtonosides A-E: Antiproliferative and Antiplasmodial Cholestane Glycosides from Galtonia regalis” (J Nat Prod, 2020)
The source made the active and inactive calls. The rule behind the calls is not given here.

Columns and labels:
[1] = test system: Erythrocyte; assay: Hemolytic activity against human erythrocytes assessed as morphological changes at IC50 concentration up to 72 hrs; assay type: ADME, cell-based
[2] = test system: Erythrocyte; assay: Hemolytic activity against human erythrocytes infected with ring stage Plasmodium falciparum Dd2 assessed as morphological changes at IC50 concentration up to 72 hrs; assay type: ADME, cell-based
[3] = test system: A2780; assay: Antiproliferative activity against human A2780 cells assessed as reduction in cell viability after 2 days hrs by AlamarBlue assay; assay type: functional, cell-based; details: A2780, 48 h
[4] = test system: Erythrocyte; assay: Hemolytic activity against human erythrocytes infected with ring stage Plasmodium falciparum Dd2 assessed as morphological changes at 11 uM up to 72 hrs by Giemsa-staining based light microscopic analysis; assay type: ADME, cell-based
[5] = test system: Erythrocyte; assay: Hemolytic activity against human erythrocytes infected with ring stage Plasmodium falciparum Dd2 assessed as reduction in cell viability at 11 uM up to 72 hrs by Giemsa-staining based light microscopic analysis
[6] = test system: Plasmodium falciparum; assay: Antiplasmodial activity against ring stage Plasmodium falciparum Dd2 infected in human erythrocytes assessed as reduction in trophozoites formation at 11 uM up to 72 hrs by Giemsa-staining based light microscopic analysis; assay type: functional, organism-based
[7] = test system: Plasmodium falciparum; assay: Antiplasmodial activity against ring stage Plasmodium falciparum Dd2 assessed as reduction in parasite growth after 72 hrs by SYBR Green 1 staining based assay; assay type: functional, organism-based; details: Dd2, 72 h
[8] = test system: Erythrocyte; assay: Hemolytic activity against human erythrocytes infected with ring stage Plasmodium falciparum Dd2 assessed as reduction in cell viability at 6 uM up to 72 hrs by Giemsa-staining based light microscopic analysis
[9] = test system: Plasmodium falciparum; assay: Antiplasmodial activity against ring stage Plasmodium falciparum Dd2 infected in human erythrocytes assessed as reduction in trophozoites formation at 6 uM up to 72 hrs by Giemsa-staining based light microscopic analysis; assay type: functional, organism-based
[10] = test system: Erythrocyte; assay: Hemolytic activity against human erythrocytes infected with ring stage Plasmodium falciparum Dd2 assessed as morphological changes at 6 uM up to 72 hrs by Giemsa-staining based light microscopic analysis; assay type: ADME, cell-based
[11] = test system: Plasmodium falciparum; assay: Antiplasmodial activity against ring stage Plasmodium falciparum Dd2 infected in human erythrocytes assessed as reduction in trophozoites formation at 3 uM up to 72 hrs by Giemsa-staining based light microscopic analysis; assay type: functional, organism-based
[12] = test system: Erythrocyte; assay: Hemolytic activity against human erythrocytes infected with ring stage Plasmodium falciparum Dd2 assessed as reduction in cell viability at 3 uM up to 72 hrs by Giemsa-staining based light microscopic analysis
[13] = test system: Erythrocyte; assay: Hemolytic activity against human erythrocytes infected with ring stage Plasmodium falciparum Dd2 assessed as morphological changes at 3 uM up to 72 hrs by Giemsa-staining based light microscopic analysis; assay type: ADME, cell-based

| IC50 [3] [µM] | Structure (SMILES) | Activity [1] | Activity [2] | Activity [4] | Activity [5] | Activity [6] | IC50 [7] [µM] | Activity [8] | Activity [9] | Activity [10] | Activity [11] | Activity [12] | Activity [13] |
| --- | --- | --- | --- | --- | --- | --- | --- | --- | --- | --- | --- | --- | --- |
| 0.1 | COc1cc(C(=O)O[C@H]2[C@H](O[C@@H]3[C@@H](OC(C)=O)[C@H](O[C@H]4C[C@H]5[C@@H]6CC=C7C[C@@H](O)CC[C@]7(C)[C@H]6CC[C@]5(C)[C@H]4[C@H](C)C(=O)CCC(C)C)OC[C@@H]3O)OC[C@@H](O)[C@@H]2O)cc(OC)c1OC | Non-Toxic | Non-Toxic | Non-Toxic | Non-Toxic | Active | 0.61 |  |  |  |  |  |  |
| 0.1 | CC(=O)O[C@H]1[C@H](O[C@H]2C[C@H]3[C@@H]4CC=C5C[C@@H](O)CC[C@]5(C)[C@H]4CC[C@]3(C)[C@@]2(O)[C@H](C)C(=O)CCC(C)C)OC[C@H](O)[C@@H]1O[C@@H]1OC[C@@H](O)[C@H](O)[C@H]1OC(=O)/C=C/c1ccccc1 | Non-Toxic | Non-Toxic |  |  |  | 0.95 |  |  |  |  |  |  |
| 0.1 | COc1ccc(C(=O)O[C@H]2[C@H](O[C@@H]3[C@@H](OC(C)=O)[C@H](O[C@H]4C[C@H]5[C@@H]6CC=C7C[C@@H](O)CC[C@]7(C)[C@H]6CC[C@]5(C)[C@H]4[C@H](C)C(=O)CCC(C)C)OC[C@@H]3O)OC[C@@H](O)[C@@H]2O)cc1OC | Non-Toxic | Non-Toxic | Non-Toxic | Non-Toxic | Active | 0.63 |  |  |  |  |  |  |
| 0.1 | COc1ccc(C(=O)O[C@H]2[C@H](O[C@@H]3[C@@H](OC(C)=O)[C@H](O[C@H]4C[C@H]5[C@@H]6CC=C7C[C@@H](O)CC[C@]7(C)[C@H]6CC[C@]5(C)[C@@]4(O)[C@H](C)C(=O)CCC(C)C)OC[C@@H]3O)OC[C@@H](O)[C@@H]2O)cc1OC | Non-Toxic | Non-Toxic |  |  |  | 1.51 |  |  |  |  |  |  |
|  | C[C@@H]1CC[C@H]2[C@@H](C)C(=O)O[C@@H]3O[C@@]4(C)CC[C@@H]1[C@]32OO4 [ARTEMISININ] |  |  |  |  |  | 0.0065 |  |  |  |  |  |  |
| 0.09 | COc1cc(C(=O)O[C@H]2[C@H](O[C@@H]3[C@@H](OC(C)=O)[C@H](O[C@H]4C[C@H]5[C@@H]6CC=C7C[C@@H](O)CC[C@]7(C)[C@H]6CC[C@]5(C)[C@@]4(O)[C@H](C)C(=O)CCC(C)C)OC[C@@H]3O)OC[C@@H](O)[C@@H]2O)cc(OC)c1OC | Non-Toxic | Non-Toxic | Non-Toxic | Non-Toxic | Active | 0.56 |  |  |  |  |  |  |
| 0.1 | CC(=O)O[C@H]1[C@H](O[C@H]2C[C@H]3[C@@H]4CC=C5C[C@@H](O)CC[C@]5(C)[C@H]4CC[C@]3(C)[C@H]2[C@H](C)C(=O)CCC(C)C)OC[C@H](O)[C@@H]1O[C@@H]1OC[C@@H](O)[C@H](O)[C@H]1OC(=O)/C=C/c1ccccc1 | Non-Toxic | Non-Toxic |  |  |  | 0.42 | Non-Toxic | Active | Non-Toxic |  |  |  |
| 0.14 | COc1ccc(C(=O)O[C@H]2[C@H](O[C@H]3C[C@H]4[C@@H]5CC=C6C[C@@H](O)CC[C@]6(C)[C@H]5CC[C@]4(C)[C@@]3(O)[C@H](C)C(=O)CCC(C)C)OC[C@H](O)[C@@H]2O)cc1OC | Non-Toxic | Non-Toxic |  |  |  | 0.21 |  |  |  | Active | Non-Toxic | Non-Toxic |
